# Source: patent publication US20230398118A1, “METHODS OF TREATING CARDIOVASCULAR-RELATED DISEASE” (Keros Therapeutics, Inc., priority 2020, published 2023)
# Legend:
# Format in all cases: in vivo, human
# [1] = test system: healthy male volunteers and healthy postmenopausal female volunteers; experiment: Phase 1 safety and tolerability, single and multiple ascending oral doses
# Excerpt: A total of 131 healthy, males aged 18 to 60 years and post-menopausal females aged 45 to 60 years, participated in this study.
# (§1) The primary objectives of this study were to a) evaluate safety and tolerability of escalating doses of the compound of Formula I-11 administered as single and multiple oral doses in healthy male volunteers and healthy postmenopausal female volunteers and b) evaluate the PK parameters following escalating doses of the compound of Formula I-11 administered as single and multiple oral doses. The […] secondary objective of this study was to evaluate the pharmacodynamic (PD) parameters following escalating doses of the compound of Formula I-11 administered as single and multiple oral doses. This study was conducted in two parts.
# Part 1 included 80 participants (10 cohorts of 8 participants each). Male and female participants who met the eligibility criteria were randomly assigned, in a ratio of 3:1 to receive the compound of Formula I-11 or matching placebo, N=6 and 2 per dose cohort, respectively. Participant enrollment included […] males and 12.5% females (postmenopausal). The IMP formulation used in Cohorts 1 through 6 was an oral capsule (doses of 1, 3, 10, 30, 100, or 300 mg capsule formulation). An oral liquid formulation was evaluated in Cohorts 7 through 10 (doses of 30, 100, 300 or 450 mg liquid formulation).
# (§2) Participants in Part 1 received a single oral dose of the compound of Formula I-11 or placebo on Day 1 and serial PK samples were collected. Baseline assessments were performed on day −1 prior to dosing. Samples were collected for determination of pharmacodynamic parameters at pre-dose daily and up to 24 hours post dose (day 2) after a single oral dose of the compound of Formula I-11. Participants remained at the study site for observation for 24 hours post-dose through the PK sample collection on Day 2. Participants returned to the site for the 48, 72, and 120-hour post-dose sample collection on Days 3, 4, and 6. Safety was evaluated by a Safety Review Committee prior to escalation to the next dose level cohort.
# Part 2, Cohorts 1 through 4, included 41 participants (4 cohorts of 10 participants each and 1 additional placebo participant in Cohort 1). Male and female participants who met the eligibility criteria were randomly assigned at a ratio of 4:1 to receive either the compound of Formula I-11 oral liquid formulation or matching placebo, N=8 and 2 per dose cohort respectively. Forty (97.6%) males and 1 (2.4%) female (placebo) participant were enrolled.
# (§3) Participants in Part 2, Cohorts 1 through 3, received a daily oral dose of the compound of Formula I-11 (50, 100, or 200 mg liquid formulation respectively) or placebo for 7 days. A daily oral dose of the compound of Formula I-11 or placebo in participants in Part 2, Cohort 4 (350 mg liquid formulation) was planned for 14 days but was discontinued early in all subjects, either by the Investigator because of AEs, or by the Sponsor. A decision was made by the Sponsor to discontinue dosing of the entire cohort based on the frequency of AEs and laboratory abnormalities after Day 9. In Cohort 4, participants on the compound of Formula I-11 received daily oral dosing of 350 mg for up to 7 days; one placebo participant received daily oral dosing for 9 days. Samples were collected for determination of pharmacodynamic parameters at pre-dose daily and to 24 hours post dose (day 8) while on drug. Daily trough PK samples were collected for the determination of steady-state from Day 2 to Day 12 or 13. Participants returned to the site on Day 30 for an end-of-study visit. Safety was evaluated by a Safety Review Committee prior to escalation to the next dose level cohort.
# Part 2, MAD Cohort 5 participants received either the compound of Formula I-11, 100 mg (n=8) or placebo (n=2) on Days 1, 2, 3, 4, 5, 6, 7. The last dose was administered on the morning of Day 7. […]
# [2] = Pharmacokinetics after single and multiple oral doses
# Excerpt: as §1, §2
# Participants in Part 2, Cohorts 1 through 3, received a daily oral dose of the compound of Formula I-11 (50, 100, or 200 mg liquid formulation respectively) or placebo for 7 days. A daily oral dose of the compound of Formula I-11 or placebo in participants in Part 2, Cohort 4 (350 mg liquid formulation) was planned for 14 days but was discontinued early in all subjects, either by the Investigator because of AEs, or by the Sponsor. A decision was made by the Sponsor to discontinue dosing of the entire cohort based on the frequency of AEs and laboratory abnormalities after Day 9. […] Safety was evaluated by a Safety Review Committee prior to escalation to the next dose level cohort. […]
# [3] = test system: healthy male volunteers and healthy postmenopausal female volunteers; experiment: Pharmacodynamics: serum cholesterol, LDL and HDL cholesterol by standard clinical laboratory tests
# Excerpt: as §1, §2, §3
# Pharmacodynamic endpoints: Protocol-specified endpoints were assessed at baseline and regularly throughout the study period. These assessments included serum cholesterol, LDL, and HDL cholesterol. Measurements of all pharmacodynamic end points were made using standard clinical laboratory tests.
# [4] = repeated oral administration, all MAD cohorts (1-5), Day 7
smiles,measurement,setting,value
COc1cc2c(-c3cnn4cc(N5CCC(N6CCN(C)CC6)CC5)cnc34)ccnc2cc1F [Formula I-11],dose level well tolerated,"[1]; after 7 daily oral doses (Part 2, MAD)",up to 200 mg
same,subjects with increases in ALT >2x ULN,"[1]; both, human, in vivo",3 subjects
same,AEs reported and higher than placebo,[1]; in vivo,"headache, nausea, vomiting, diarrhea, gastroenteritis, chills, pyrexia, myalgia, decreased appetite, lymphopenia, neutropenia, and liver enzyme increases"
same,serious adverse events,[1]; in vivo,no serious adverse events
same,severity of the majority of AEs,[1]; in vivo,mild or moderate in severity
same,participants who discontinued the study,"[1]; male, human, in vivo",3 (9.4%) participants
same,dose level well tolerated,"[1]; single oral dose (Part 1, SAD)",up to 450 mg
same,half-life,"[2]; both sexes, in vivo, human, oral",10 to 15 h
same,"Mean AUC, dose dependence",[2]; multiple doses from 50-200 mg,increased linearly with greater than dose-proportional increases
same,"Mean Cmax, dose dependence",[2]; multiple doses from 50-200 mg,increased linearly with greater than dose-proportional increases
same,decrease in LDL compared with HDL cholesterol,"[3]; all MAD cohorts, Day 7",greater decreases in LDL than HDL cholesterol
same,total cholesterol,"[3]; repeated oral administration, MAD Cohorts 1-4, across the one-week dosing period",decreases in total cholesterol
same,HDL cholesterol,[3]; [4],decreases in HDL cholesterol
same,LDL cholesterol,[3]; [4],decreases in LDL cholesterol
same,total cholesterol,"[3]; single oral administration, SAD cohorts, within 24 hours",decreases in total cholesterol
